In patent US8791132B2, “Compounds and methods for treatment of hypertension” (Medivation Technologies, Inc., priority 2011, dated 2014):
Like-named read-outs stand apart in the source and are kept apart here.

Key:
[1] = biological target: T1, human recombinant adrenergic α2B receptor (Homo sapiens, UniProt P18089); assay: Radioligand binding, adrenergic α2B ([3H]Rauwolscine); conditions: [3H]Rauwolscine; for Percentage inhibition of ligand binding, Adrenergic α2B: 0.03 µM
T1 construct: expressed in transfected cells; host or cells: CHO-K1
T1 sequence (P18089 1-450): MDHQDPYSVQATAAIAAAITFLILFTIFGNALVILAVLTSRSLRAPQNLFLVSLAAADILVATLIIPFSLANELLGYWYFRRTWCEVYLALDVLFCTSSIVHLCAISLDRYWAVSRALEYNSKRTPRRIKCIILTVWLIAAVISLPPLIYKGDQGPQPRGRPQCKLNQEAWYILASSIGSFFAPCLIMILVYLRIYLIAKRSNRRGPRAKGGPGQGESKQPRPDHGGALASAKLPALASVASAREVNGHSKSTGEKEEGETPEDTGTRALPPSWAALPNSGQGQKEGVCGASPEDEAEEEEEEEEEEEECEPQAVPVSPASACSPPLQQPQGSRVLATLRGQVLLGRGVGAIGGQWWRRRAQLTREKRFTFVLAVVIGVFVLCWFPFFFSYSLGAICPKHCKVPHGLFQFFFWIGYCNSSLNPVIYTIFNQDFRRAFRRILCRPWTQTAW
Method in brief: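 Receptor expressed in CHO-K1 cells, assayed in 50 mM Tris-HCl pH 7.4 with 12.5 mM MgCl2, 1 mM EDTA and 0.2% BSA. Compounds were incubated with 2.5 nM [3H]Rauwolscine for 60 min at 25° C; 10 μM Prazosin defined non-specific binding. Filter counting gave percent inhibition of specific binding.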

[2] = biological target: T2, human recombinant adrenergic α2A receptor (Homo sapiens, UniProt P08913); assay: Radioligand binding, adrenergic α2A ([3H]MK-912); conditions: [3H]MK-912; for Percentage inhibition of ligand binding, Adrenergic α2A: 0.1 µM
T2 construct: expressed in transfected cells; host or cells: insect Sf9 cells
T2 sequence (P08913 1-465): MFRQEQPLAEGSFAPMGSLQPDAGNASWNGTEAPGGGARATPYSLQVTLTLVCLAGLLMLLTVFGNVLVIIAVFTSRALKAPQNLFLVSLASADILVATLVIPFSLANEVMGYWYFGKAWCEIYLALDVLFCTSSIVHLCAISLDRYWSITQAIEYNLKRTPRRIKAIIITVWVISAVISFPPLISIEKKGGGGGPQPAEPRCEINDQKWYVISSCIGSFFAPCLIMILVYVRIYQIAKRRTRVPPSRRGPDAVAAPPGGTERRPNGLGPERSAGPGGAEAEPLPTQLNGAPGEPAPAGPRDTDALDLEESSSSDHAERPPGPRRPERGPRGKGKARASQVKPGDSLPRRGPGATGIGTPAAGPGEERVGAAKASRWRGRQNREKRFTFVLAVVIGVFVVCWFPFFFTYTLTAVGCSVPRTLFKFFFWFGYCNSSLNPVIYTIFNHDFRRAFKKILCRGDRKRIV
Method in brief: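 Displacement of 1 nM [3H]MK-912 from receptor produced in insect Sf9 cells was measured after 60 min at 25 °C. Readout: percent inhibition of specific binding.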

[3] = biological target: T3, rat adrenergic α1B receptor (Rattus norvegicus, UniProt P15823); assay: Radioligand binding, adrenergic α1B ([3H]Prazosin); conditions: [3H]Prazosin; for Percentage inhibition of ligand binding, Adrenergic α1B: 0.1 µM
T3 construct: rat adrenergic α1B receptor obtained from Wistar Rat liver; from tissue; host or cells: Wistar rat liver
T3 sequence (P15823 1-515): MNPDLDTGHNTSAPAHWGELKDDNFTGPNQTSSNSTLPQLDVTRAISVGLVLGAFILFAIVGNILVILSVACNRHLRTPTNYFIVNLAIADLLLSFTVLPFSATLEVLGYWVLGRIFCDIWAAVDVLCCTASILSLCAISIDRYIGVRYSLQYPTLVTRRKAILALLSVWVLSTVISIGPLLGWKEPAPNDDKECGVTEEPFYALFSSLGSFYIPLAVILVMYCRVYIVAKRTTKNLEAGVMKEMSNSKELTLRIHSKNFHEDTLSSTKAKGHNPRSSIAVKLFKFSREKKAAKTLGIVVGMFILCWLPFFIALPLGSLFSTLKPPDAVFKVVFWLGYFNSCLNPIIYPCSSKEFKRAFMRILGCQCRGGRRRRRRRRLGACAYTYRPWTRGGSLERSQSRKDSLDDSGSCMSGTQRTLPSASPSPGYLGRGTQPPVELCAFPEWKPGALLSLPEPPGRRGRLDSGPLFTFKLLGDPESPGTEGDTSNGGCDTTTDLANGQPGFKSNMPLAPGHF
Method in brief: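 Rat α1B receptor from Wistar rat liver was incubated with 0.25 nM [3H]prazosin for 60 min at 25 °C in 50 mM Tris-HCl, pH 7.4, 0.5 mM EDTA. Non-specific binding was defined with 10 μM phentolamine. Bound radioligand was measured by filtration and counting, reported as percent inhibition of specific binding.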

[4] = read-out: Percentage inhibition of ligand binding, Adrenergic α2B (0.03 μM), compound at 0.03 μM, repeat datapoints each shown
[5] = read-out: Percentage inhibition of ligand binding, Adrenergic α2A (0.1 μM), compound at 0.1 μM, repeat datapoints each shown
[6] = read-out: Percentage inhibition of ligand binding, Adrenergic α1B (0.1 μM), compound at 0.1 μM, repeat datapoints each shown
[7] = compound at 0.03 μM, repeat assays, each datapoint shown, read-out: Percentage inhibition of ligand binding, Adrenergic α2B
[8] = compound at 0.1 μM, repeat assays, each datapoint shown, read-out: Percentage inhibition of ligand binding, Adrenergic α2A
[9] = compound at 0.1 μM, repeat assays, each datapoint shown, read-out: Percentage inhibition of ligand binding, Adrenergic α1B
[10] = compound at 0.03 μM, repeat assays, each datapoint shown
[11] = compound at 0.1 μM, repeat assays, each datapoint shown

inhibition at 0.03 µM [1, 7]	inhibition at 0.1 µM [2, 8]	inhibition at 0.1 µM [3, 9]	Percentage inhibition of ligand binding, Adrenergic α2B [1, 10]	Percentage inhibition of ligand binding, Adrenergic α2A [2, 11]	Percentage inhibition of ligand binding, Adrenergic α1B [3, 11]	further results	Compound
						inhibition at 0.03 µM [1, 4]: 71%; inhibition at 0.1 µM [2, 5]: 40%; inhibition at 0.1 µM [3, 6]: 22%	Cc1ccc2c(c1)c1c(n2CC(C)(N=[N+]=[N-])c2cccnc2)CCN(C)C1 (stereo not drawn) [V-3, 5-(2-azido-2-(pyridin-3-yl)propyl)-2,8-dimethyl-2,3,4,5-tetrahydro-1H-pyrido[4,3-b]indole]
						inhibition at 0.03 µM [1, 4]: 20%; inhibition at 0.1 µM [2, 5]: 7%; inhibition at 0.1 µM [3, 6]: 4%	Cc1ccc2c(c1)c1c(n2CC(OCC(=O)O)c2ccncc2)CCN2CCCC12 (stereo not drawn) [V-15, 2-(2-(10-methyl-2,3,5,6-tetrahydro-1H-indolizino[7,8-b]indol-7(11cH)-yl)-1-(pyridin-4-yl)ethoxy)acetic acid]
						inhibition at 0.03 µM [1, 4]: 90%; inhibition at 0.1 µM [2, 5]: 18%; inhibition at 0.1 µM [3, 6]: 28%	Cc1ccc2c(c1)c1c(n2CC(N=[N+]=[N-])c2ccc(C(N)=O)nc2)CCN(C)C1 (stereo not drawn) [V-22, 5-[1-azido-2-(2,8-dimethyl-1,2,3,4-tetrahydro-pyrido[4,3-b]indol-5-yl)-ethyl]-pyridine-2-carboxylic acid amide]
						inhibition at 0.03 µM [1, 4]: 105%; inhibition at 0.1 µM [2, 5]: 109%; inhibition at 0.1 µM [3, 6]: 94%	Cc1ccc2c(c1)c1c(n2CC(N=[N+]=[N-])c2ccc(F)cc2)CCN2CCCC12 (stereo not drawn) [V-23, 7-(2-azido-2-(4-fluorophenyl)ethyl)-10-methyl-2,3,5,6,7,11c-hexahydro-1H-indolizino[7,8-b]indole]
62%	2%	8%					CN1CCc2c(c3cc(C(F)(F)F)ccc3n2CC(O)c2ccncc2)C1 (stereo not drawn) [compound 6, 2-(2-methyl-8-(trifluoromethyl)-3,4-dihydro-1H-pyrido[4,3-b]indol-5(2H)-yl)-1-(pyridin-4-yl)ethanol]
			36%	−4%	5%		Cc1ccc2c(c1)c1c(n2CC(O)c2cccnc2)CCNC1 (stereo not drawn) [compound 9, 2-(8-methyl-1,2,3,4-tetrahydro-pyrido[4,3-b]indol-5-yl)-1-pyridin-3-yl-ethanol]
		83%	92%	18%			Cc1ccc2c(c1)c1c(n2CC(O)c2ccncc2)CCN(C)CC1 (stereo not drawn) [compound 13, 2-(3,9-dimethyl-2,3,4,5-tetrahydroazepino[4,5-b]indol-6(1H)-yl)-1-(pyridin-4-yl)ethanol]
		93%	93%	19%			CN1CCc2c(n(CC(O)c3ccncc3)c3ccc(Cl)cc23)CC1 (stereo not drawn) [compound 15, 2-(9-chloro-3-methyl-2,3,4,5-tetrahydroazepino[4,5-b]indol-6(1H)-yl)-1-(pyridin-4-yl)ethanol]
37%		18%		19%			CN1Cc2c(n(CC(O)c3ccncc3)c3ncccc23)C(C)(C)C1 (stereo not drawn) [compound 17, 1-pyridin-4-yl-2-(6,8,8-trimethyl-5,6,7,8-tetrahydro-1,6,9-triaza-fluoren-9-yl)-ethanol]
			24%	−1%	21%		Cc1ccc2c(c1)c1c(n2CC(O)c2cccnc2)CN(C)CC1 (stereo not drawn) [compound 43, 2-(2,6-dimethyl-1,2,3,4-tetrahydro-β-carbolin-9-yl)-1-pyridin-3-yl-ethanol]
			56%	−1%	−3%		COc1cccc2c3c(n(CC(O)c4ccncc4)c12)CCN(C)C3 (stereo not drawn) [compound 44, 2-(6-methoxy-2-methyl-3,4-dihydro-1H-pyrido[4,3-b]indol-5(2H)-yl)-1-(pyridin-4-yl)ethanol]
			82%	20%	43%		COc1ccc(C(O)Cn2c3c(c4cc(C)ccc42)CN(C)CC3)cn1 (stereo not drawn) [compound 51, 2-(2,8-dimethyl-1,2,3,4-tetrahydro-pyrido[4,3-b]indol-5-yl)-1-(6-methoxy-pyridin-3-yl)-ethanol]
	13%		63%		37%		Cc1cnc2c(c1)c1c(n2CC(O)c2ccncc2)CCN(C)C1 (stereo not drawn) [compound 55, 2-(3,6-dimethyl-5,6,7,8-tetrahydro-1,6,9-triaza-fluoren-9-yl)-1-pyridin-4-yl-ethanol]
			26%	−1%	21%		Cc1cnc2c(c1)c1c(n2CC(O)c2ccncc2)CCNC1 (stereo not drawn) [compound 58, 2-(3-methyl-5,6,7,8-tetrahydro-1,6,9-triaza-fluoren-9-yl)-1-pyridin-4-yl-ethanol]
76%	1%	16%					Cc1ccc2c(c1)c1c(n2CC(O)c2cccnc2)CCN(C)C1 (stereo not drawn) [compound 62]
62%	12%	25%					COc1ccc(C(C)(O)Cn2c3c(c4cc(C)ccc42)CN(C)CC3)cn1 (stereo not drawn) [compound 64, 1-(2,8-dimethyl-1,2,3,4-tetrahydro-pyrido[4,3-b]indol-5-yl)-2-(6-methoxy-pyridin-3-yl)-propan-2-ol]
64%	-3%	-13%					CN1CCc2c(c3ccc(C(F)(F)F)cc3n2CC(O)c2ccncc2)C1 (stereo not drawn) [compound 65, 2-(2-methyl-7-(trifluoromethyl)-3,4-dihydro-1H-pyrido[4,3-b]indol-5(2H)-yl)-1-(pyridin-4-yl)ethanol]
69%	15%	48%					COc1ccc(C(O)Cn2c3c(c4cc(C)ccc42)CN(C)CC3)cc1OC (stereo not drawn) [compound 66, 1-(3,4-dimethoxy-phenyl)-2-(2,8-dimethyl-1,2,3,4-tetrahydro-pyrido[4,3-b]indol-5-yl)-ethanol]
17%	-7%	12%					Cc1ccc2c(c1)c1c(n2CC(O)c2ccc(C(=O)O)cc2)CCN(C)C1 (stereo not drawn) [compound 67, 4-[2-(2,8-dimethyl-1,2,3,4-tetrahydro-pyrido[4,3-b]indol-5-yl)-1-hydroxy-ethyl]-benzoic acid]
4%	1%	2%					Cc1ccc2c(c1)c1c(n2CC(=O)c2cc[n+]([O-])cc2)CCN(C)C1 [compound 68]
